Test results taken from patent publication US9611267B2, “Substituted tricyclic compounds as FGFR inhibitors” (Incyte Corporation, priority 2012, dated 2017).

Legend:
Assay type in all cases: biochemical
FGFR2 = FGFR2 (Homo sapiens (Human), UniProt P21802); assay: FGFR enzymatic assay (FRET peptide phosphorylation), FGFR2; details: FGFR2 enzyme 0.01 nM, ATP 100 μM
Protocol: (§1) The inhibitor potency of the exemplified compounds was measured in an enzyme assay that measures peptide phosphorylation using FRET measurements to detect product formation. Inhibitors were serially diluted in DMSO and a volume of 0.5 μL was transferred to the wells of a 384-well plate. For FGFR3, a 10 μL volume of FGFR3 enzyme (Millipore) diluted in assay buffer (50 mM HEPES, 10 mM MgCl2, 1 mM EGTA, 0.01% Tween-20, 5 mM DTT, pH 7.5) was added to the plate and pre-incubated for 5-10 minutes. Appropriate controls (enzyme blank and enzyme with no inhibitor) were included on the plate. […] The plate was incubated at 25° C. for 1 hr. […] The plate was allowed to equilibrate for ˜1 hr before scanning the wells on a PheraStar plate reader (BMG Labtech).
(§2) The enzymes were purchased from Millipore or Invitrogen.
(§3) GraphPad prism3 was used to analyze the data. The IC50 values were derived by fitting the data to the equation for a sigmoidal dose-response with a variable slope. Y=Bottom+(Top−Bottom)/(1+10^((LogIC50−X)*HillSlope)) where X is the logarithm of concentration and Y is the response.

FGFR3 = FGFR3 (Homo sapiens (Human), UniProt P22607); assay: FGFR enzymatic assay (FRET peptide phosphorylation), FGFR3; details: FGFR3 enzyme (Millipore), ATP 140 μM
Chain of FGFR3 (P22607 23-806): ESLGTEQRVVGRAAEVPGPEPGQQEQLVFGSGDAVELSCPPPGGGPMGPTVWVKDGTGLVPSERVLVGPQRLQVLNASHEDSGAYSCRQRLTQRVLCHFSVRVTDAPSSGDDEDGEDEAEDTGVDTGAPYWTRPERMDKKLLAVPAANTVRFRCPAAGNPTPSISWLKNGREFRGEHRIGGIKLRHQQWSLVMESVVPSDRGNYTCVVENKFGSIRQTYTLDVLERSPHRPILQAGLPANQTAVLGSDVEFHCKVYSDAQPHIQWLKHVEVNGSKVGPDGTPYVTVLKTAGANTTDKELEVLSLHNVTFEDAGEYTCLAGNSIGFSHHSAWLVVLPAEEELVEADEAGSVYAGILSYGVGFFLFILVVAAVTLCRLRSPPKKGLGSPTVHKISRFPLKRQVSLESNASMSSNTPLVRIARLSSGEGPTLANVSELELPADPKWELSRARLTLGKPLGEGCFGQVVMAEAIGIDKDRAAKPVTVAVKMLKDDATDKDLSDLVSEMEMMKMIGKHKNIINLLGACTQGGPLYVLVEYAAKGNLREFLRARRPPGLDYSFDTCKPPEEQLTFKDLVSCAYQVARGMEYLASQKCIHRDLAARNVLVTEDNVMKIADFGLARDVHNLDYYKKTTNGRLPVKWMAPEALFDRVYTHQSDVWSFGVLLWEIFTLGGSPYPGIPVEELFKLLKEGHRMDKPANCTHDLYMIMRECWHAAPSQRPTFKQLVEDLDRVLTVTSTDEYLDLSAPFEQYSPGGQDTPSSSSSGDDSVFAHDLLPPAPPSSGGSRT
Protocol: as §1, §3

FGFR1 = FGFR1 (Homo sapiens (Human), UniProt P11362); assay: FGFR enzymatic assay (FRET peptide phosphorylation), FGFR1; details: FGFR1 enzyme 0.02 nM, ATP 210 μM
Chain of FGFR1 (P11362 22-822): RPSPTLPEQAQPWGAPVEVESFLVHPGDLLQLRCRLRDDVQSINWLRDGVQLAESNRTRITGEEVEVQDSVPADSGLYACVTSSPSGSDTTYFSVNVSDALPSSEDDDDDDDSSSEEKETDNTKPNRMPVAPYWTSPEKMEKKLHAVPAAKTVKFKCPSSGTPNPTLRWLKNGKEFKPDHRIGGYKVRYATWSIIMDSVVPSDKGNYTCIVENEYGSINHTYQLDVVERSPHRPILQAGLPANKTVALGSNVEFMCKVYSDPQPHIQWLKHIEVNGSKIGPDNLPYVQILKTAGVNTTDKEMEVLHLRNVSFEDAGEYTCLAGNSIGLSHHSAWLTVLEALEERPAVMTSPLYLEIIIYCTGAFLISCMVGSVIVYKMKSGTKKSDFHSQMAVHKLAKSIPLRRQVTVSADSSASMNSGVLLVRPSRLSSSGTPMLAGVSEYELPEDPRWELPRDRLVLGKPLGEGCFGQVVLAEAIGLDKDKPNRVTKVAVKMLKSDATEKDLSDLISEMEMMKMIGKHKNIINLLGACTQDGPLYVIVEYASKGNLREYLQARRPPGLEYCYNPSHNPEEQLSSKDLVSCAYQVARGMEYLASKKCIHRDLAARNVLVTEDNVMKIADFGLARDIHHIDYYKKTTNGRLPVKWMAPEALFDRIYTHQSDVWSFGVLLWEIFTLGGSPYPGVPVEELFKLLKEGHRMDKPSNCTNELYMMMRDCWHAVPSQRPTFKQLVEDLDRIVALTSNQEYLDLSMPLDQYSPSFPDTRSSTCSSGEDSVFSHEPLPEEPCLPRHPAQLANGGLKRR
Protocol: as §1, §2, §3

Chain of FGFR2 (P21802 22-821): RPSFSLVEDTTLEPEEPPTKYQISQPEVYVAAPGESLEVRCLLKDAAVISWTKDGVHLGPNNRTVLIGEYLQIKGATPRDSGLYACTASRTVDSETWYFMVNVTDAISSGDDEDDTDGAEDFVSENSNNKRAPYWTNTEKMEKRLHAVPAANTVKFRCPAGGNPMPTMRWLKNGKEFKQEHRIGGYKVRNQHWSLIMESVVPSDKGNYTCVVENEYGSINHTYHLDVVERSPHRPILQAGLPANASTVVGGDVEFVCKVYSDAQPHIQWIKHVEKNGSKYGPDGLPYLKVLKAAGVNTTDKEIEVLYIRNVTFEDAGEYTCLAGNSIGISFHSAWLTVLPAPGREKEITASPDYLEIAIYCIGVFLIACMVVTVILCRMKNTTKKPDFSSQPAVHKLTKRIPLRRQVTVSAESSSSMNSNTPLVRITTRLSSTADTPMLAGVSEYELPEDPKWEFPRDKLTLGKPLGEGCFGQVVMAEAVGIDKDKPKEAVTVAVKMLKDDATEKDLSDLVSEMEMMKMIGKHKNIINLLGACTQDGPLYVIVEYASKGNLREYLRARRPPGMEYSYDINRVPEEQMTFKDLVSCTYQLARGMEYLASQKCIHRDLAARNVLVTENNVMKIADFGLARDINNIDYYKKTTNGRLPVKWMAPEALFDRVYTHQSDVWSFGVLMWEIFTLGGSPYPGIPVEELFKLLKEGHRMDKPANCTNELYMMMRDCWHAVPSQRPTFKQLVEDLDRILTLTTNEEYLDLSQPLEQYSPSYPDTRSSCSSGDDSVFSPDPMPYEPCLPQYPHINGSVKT

Row | SMILES | IC50 (FGFR2) | IC50 (FGFR3) | IC50 (FGFR1)
1 | COc1cc(OC)c(F)c(N2Cc3cnc4[nH]ccc4c3N(c3ccccc3)C2=O)c1F [Example 47, 3-(2,6-difluoro-3,5-dimethoxyphenyl)-1-phenyl-1,3,4,7-tetrahydro-2H-pyrrolo[3′,2′:5,6]pyrido[4,3-d]pyrimidin-2-one] | < 100 nM | < 100 nM | < 100 nM
2 | COc1cc(OC)c(F)c(N2Cc3cnc4c(c3N(C3CC3)C2=O)CC(=O)N4)c1F [Example 48, 1-Cyclopropyl-3-(2,6-difluoro-3,5-dimethoxyphenyl)-3,4,7,9-tetrahydro-1H-pyrrolo[3′,2′:5,6]pyrido[4,3-d]pyrimidine-2,8-dione] | < 100 nM | < 100 nM | < 100 nM
3 | CCN1C(=O)N(c2c(F)c(OC)cc(OC)c2F)Cc2cnc3c(c21)CC(=O)N3 [Example 49, 3-(2,6-Difluoro-3,5-dimethoxyphenyl)-1-ethyl-3,4,7,9-tetrahydro-1H-pyrrolo[3′,2′:5,6]pyrido[4,3-d]pyrimidine-2,8-dione] | < 100 nM | < 100 nM | < 100 nM
4 | COc1cc(OC)c(F)c(N2Cc3cnc4c(c3N(CC3CC3)C2=O)CC(=O)N4)c1F [Example 50, 1-(Cyclopropylmethyl)-3-(2,6-difluoro-3,5-dimethoxyphenyl)-3,4,7,9-tetrahydro-1H-pyrrolo[3′,2′:5,6]pyrido[4,3-d]pyrimidine-2,8-dione] | < 100 nM | < 100 nM | < 100 nM
5 | COc1cc(OC)c(F)c(N2Cc3cnc4[nH]ncc4c3N(C)C2=O)c1F [Example 51, 3-(2,6-Difluoro-3,5-dimethoxyphenyl)-1-methyl-1,3,4,7-tetrahydro-2H-pyrazolo[4′,3′:5,6]pyrido[4,3-d]pyrimidin-2-one] | < 100 nM | < 100 nM | < 100 nM
6 | COc1cc(OC)c(F)c(N2Cc3cnc4[nH]nc(C)c4c3N(C)C2=O)c1F [Example 52, 3-(2,6-Difluoro-3,5-dimethoxyphenyl)-1,9-dimethyl-1,3,4,7-tetrahydro-2H-pyrazolo[4′,3′:5,6]pyrido[4,3-d]pyrimidin-2-one] | < 100 nM | < 100 nM | < 100 nM
7 | COc1cc(OC)c(F)c(N2Cc3cnc4[nH]nc(C#N)c4c3N(C)C2=O)c1F [Example 53, 3-(2,6-Difluoro-3,5-dimethoxyphenyl)-1-methyl-2-oxo-2,3,4,7-tetrahydro-1H-pyrazolo[4′,3′:5,6]pyrido[4,3-d]pyrimidine-9-carbonitrile] | < 100 nM | < 100 nM | < 100 nM
8 | COc1cc(OC)c(F)c(N2Cc3cnc4[nH]nc(CC#N)c4c3N(C)C2=O)c1F [Example 54, [3-(2,6-Difluoro-3,5-dimethoxyphenyl)-1-methyl-2-oxo-2,3,4,7-tetrahydro-1H-pyrazolo[4′,3′:5,6]pyrido[4,3-d]pyrimidin-9-yl]acetonitrile] | < 100 nM | < 100 nM | < 100 nM
9 | COc1cc(OC)c(F)c(N2Cc3cnc4[nH]nc(C5CCN(C)CC5)c4c3N(C)C2=O)c1F [Example 55, 3-(2,6-Difluoro-3,5-dimethoxyphenyl)-1-methyl-9-(1-methylpiperidin-4-yl)-1,3,4,7-tetrahydro-2H-pyrazolo[4′,3′:5,6]pyrido[4,3-d]pyrimidin-2-one] | < 100 nM | < 100 nM | < 100 nM
10 | COc1cc(OC)c(F)c(N2Cc3cnc4[nH]nc(CCO)c4c3N(C)C2=O)c1F [Example 56, 3-(2,6-Difluoro-3,5-dimethoxyphenyl)-9-(2-hydroxyethyl)-1-methyl-1,3,4,7-tetrahydro-2H-pyrazolo[4′,3′:5,6]pyrido[4,3-d]pyrimidin-2-one] | < 100 nM | < 100 nM | < 100 nM
11 | CCN1C(=O)N(c2c(F)c(OC)cc(OC)c2F)Cc2cnc3[nH]ncc3c21 [Example 57, 3-(2,6-Difluoro-3,5-dimethoxyphenyl)-1-ethyl-1,3,4,7-tetrahydro-2H-pyrazolo[4′,3′:5,6]pyrido[4,3-d]pyrimidin-2-one] | < 100 nM | < 100 nM | < 100 nM
12 | COc1cc(OC)c(F)c(N2Cc3cnc4[nH]ncc4c3N(CCO)C2=O)c1F [Example 58, 3-(2,6-Difluoro-3,5-dimethoxyphenyl)-1-(2-hydroxyethyl)-1,3,4,7-tetrahydro-2H-pyrazolo[4′,3′:5,6]pyrido[4,3-d]pyrimidin-2-one] | < 100 nM | < 100 nM | < 100 nM
13 | COc1cc(OC)c(F)c(N2Cc3cnc4[nH]ccc4c3CC2=O)c1F [Example 60, 7-(2,6-difluoro-3,5-dimethoxyphenyl)-3,6,7,9-tetrahydro-8H-pyrrolo[2,3-c]-2,7-naphthyridin-8-one] | < 100 nM | < 100 nM | < 100 nM

Further lines, results first:

Row | IC50 (FGFR2) | IC50 (FGFR3) | IC50 (FGFR1) | SMILES
14 | < 100 nM | < 100 nM | < 100 nM | COc1cc(OC)c(F)c(N2Cc3cnc4[nH]cnc4c3N(C)C2=O)c1F [Example 61, 7-(2,6-difluoro-3,5-dimethoxyphenyl)-9-methyl-3,6,7,9-tetrahydro-8H-imidazo[4′,5′:5,6]pyrido[4,3-d]pyrimidin-8-one]
15 | 100 to 500 nM | < 100 nM | 100 to 500 nM | COc1cc(OC)c(F)c(N2Cc3cnc4[nH]ncc4c3OC2=O)c1F [Example 62, 3-(2,6-difluoro-3,5-dimethoxyphenyl)-4,7-dihydropyrazolo[4′,3′:5,6]pyrido[3,4-e][1,3]oxazin-2(3H)-one]
16 | < 100 nM | < 100 nM | < 100 nM | COc1cc(OC)c(F)c(N2Cc3cnc4c(c3N(C3CCC3)C2=O)CC(=O)N4)c1F [Example 64, 1-cyclobutyl-3-(2,6-difluoro-3,5-dimethoxyphenyl)-3,4,7,9-tetrahydro-1H-pyrrolo[3′,2′:5,6]pyrido[4,3-d]pyrimidine-2,8-dione]
17 | < 100 nM | < 100 nM | < 100 nM | COc1cc(OC)c(F)c(N2Cc3cnc4c(c3N(Cc3cccc(F)c3)C2=O)CC(=O)N4)c1F [Example 65, 3-(2,6-difluoro-3,5-dimethoxyphenyl)-1-(3-fluorobenzyl)-3,4,7,9-tetrahydro-1H-pyrrolo[3′,2′:5,6]pyrido[4,3-d]pyrimidine-2,8-dione]
18 | < 100 nM | < 100 nM | < 100 nM | COc1cc(OC)c(F)c(N2Cc3cnc4[nH]ccc4c3C3(CC3)C2=O)c1F [Example 66, 7′-(2,6-difluoro-3,5-dimethoxyphenyl)-6′,7′-dihydrospiro[cyclopropane-1,9′-pyrrolo[2,3-c][2,7]naphthyridin]-8′(3′H)-one]
19 | < 100 nM | < 100 nM | < 100 nM | COc1cc(OC)c(F)c(N2Cc3cnc4[nH]ccc4c3C(C)(C)C2=O)c1F [Example 67, 7-(2,6-difluoro-3,5-dimethoxyphenyl)-9,9-dimethyl-3,6,7,9-tetrahydro-8H-pyrrolo[2,3-c]-2,7-naphthyridin-8-one]
20 | < 100 nM | < 100 nM | < 100 nM | COc1cc(OC)c(F)c(N2Cc3cnc4c(c3N(c3ccc(Cl)cc3F)C2=O)CC(=O)N4)c1F [Example 68, 1-(4-chloro-2-fluorophenyl)-3-(2,6-difluoro-3,5-dimethoxyphenyl)-3,4,7,9-tetrahydro-1H-pyrrolo[3′,2′:5,6]pyrido[4,3-d]pyrimidine-2,8-dione]
21 | < 100 nM | < 100 nM | < 100 nM | CCN1CCN(c2ccc(-c3n[nH]c4ncc5c(c34)N(C)C(=O)N(c3c(F)c(OC)cc(OC)c3F)C5)cc2)CC1 [Example 69, 3-(2,6-difluoro-3,5-dimethoxyphenyl)-9-[4-(4-ethylpiperazin-1-yl)phenyl]-1-methyl-1,3,4,7-tetrahydro-2H-pyrazolo[4′,3′:5,6]pyrido[4,3-d]pyrimidin-2-one]
22 | < 100 nM | < 100 nM | < 100 nM | CCN1CCN(Cc2cc3c4c(cnc3[nH]2)CN(c2c(F)c(OC)cc(OC)c2F)C(=O)N4C)CC1 [Example 70, 3-(2,6-difluoro-3,5-dimethoxyphenyl)-8-[(4-ethylpiperazin-1-yl)methyl]-1-methyl-1,3,4,7-tetrahydro-2H-pyrrolo[3′,2′:5,6]pyrido[4,3-d]pyrimidin-2-one]
23 | < 100 nM | < 100 nM | < 100 nM | CCN1CCN(CCc2cc3c4c(cnc3[nH]2)CN(c2c(F)c(OC)cc(OC)c2F)C(=O)N4C)CC1 [Example 71, 3-(2,6-difluoro-3,5-dimethoxyphenyl)-8-[2-(4-ethylpiperazin-1-yl)ethyl]-1-methyl-1,3,4,7-tetrahydro-2H-pyrrolo[3′,2′:5,6]pyrido[4,3-d]pyrimidin-2-one]
24 | < 100 nM | < 100 nM | < 100 nM | CCN1CCN(CCCc2cc3c4c(cnc3[nH]2)CN(c2c(F)c(OC)cc(OC)c2F)C(=O)N4C)CC1 [Example 72, 3-(2,6-difluoro-3,5-dimethoxyphenyl)-8-[3-(4-ethylpiperazin-1-yl)propyl]-1-methyl-1,3,4,7-tetrahydro-2H-pyrrolo[3′,2′:5,6]pyrido[4,3-d]pyrimidin-2-one]
